These results are taken from patent US20250380696A1, “METHOD FOR CONTROLLING UNDESIRED PLANTS AND PROMOTING GROWTH OF USEFUL PLANTS” (ISHIHARA SANGYO KAISHA, LTD., priority 2022, published 2025).

Assay [1] relates to Italian ryegrass (Lolium multiflorum). Put plainly: (3) Herbicidal effect test, pot, spray at 2.8 to 3.2 leaf stage. As to conditions: 7th day after spraying. It is filed as in vivo. From the text:
[formula] • X: growth inhibition rate when treated with α (g/ha) of compound A, • Y: growth inhibition rate when treated with β (g/ha) of compound B, • E: growth inhibition rate expected when treated with α (g/ha) of compound A and β (g/ha) of compound B (expected value).
Upland soil was put in a 1/1,000,000 hectare pot, and seeds of Italian ryegrass (Lolium multiflorum) were sown. When the Italian ryegrass reached 2.8 to 3.2 leaf stage, a water-based suspension containing tiafenacil as the active ingredient, prepared by a conventional method for preparing a water-based suspension, and an emulsifiable concentrate containing S-metolachlor as the active ingredient (tradename: Dual Gold, manufactured by Syngenta), were diluted with water (in an amount corresponding to 200 liter per hectare) containing 0.5 vol % of an agricultural spreader (tradename: Destiny HC, manufactured by Winfield Solutions, LLC.) and sprayed by a small spray gun (model: W-101-132G, manufactured by ANEST IWATA Corporation). […] Further, the expected value of the growth inhibition rate (%) was calculated in accordance with the Colby's formula described in the above (1) herbicidal effect test, and the results are also shown in Table 3.

Assay [2] has as its system wheat (cultivar: Norin 61). Put plainly: (22) Plant growth promotion effect test (wheat), Italian ryegrass sown. In kind it is in vivo. Particulars: 21st day after the sowing, above-ground part. Here is the method: Upland soil was put in a 1/1,000,000 hectare pot, and seeds of Italian ryegrass (Lolium multiflorum) were sown. When the Italian ryegrass reached 2.5 to 2.8 leaf stage, a water-based suspension containing tiafenacil as the active ingredient, prepared by a conventional method for preparing a water-based suspension, and a wettable powder containing tri-allate as the active ingredient, prepared by a conventional method for preparing a wettable powder, were diluted with water (in an amount corresponding to 200 liter per hectare) containing 0.5 vol % of an agricultural spreader (tradename: Destiny HC, manufactured by Winfield Solutions, LLC.) and sprayed by a small spray gun (model: W-101-132G, manufactured by ANEST IWATA Corporation). Seeds of wheat (cultivar: Norin 61, manufactured by Asahi Noen Seed Co., Ltd.) were sown in the pot after spraying. On the 21st day after the sowing, the above-ground part of the wheat was reaped, and its weight was measured to obtain the raw weight.

Consider `CCc1cccc(C)c1N(C(=O)CCl)[C@@H](C)COC` [S-metolachlor], for which, in assay [1] (Dose 15.6 g/ha), the “Growth inhibition rate (%) Measured value” came out at 0%.
Turning to `COC(=O)CCNC(=O)C(C)Sc1cc(-n2c(=O)cc(C(F)(F)F)n(C)c2=O)c(F)cc1Cl` (stereo not shown) [tiafenacil], the “Growth inhibition rate (%) Measured value” in assay [1] (Dose 12.5 g/ha) was 53%. In addition, the “Raw weight (g) of wheat” value in assay [2] (Dose 3 g/ha) amounted to 2.2 g.
Regarding `CC(C)N(C(=O)SCC(Cl)=C(Cl)Cl)C(C)C` [tri-allate], the “Raw weight (g) of wheat” value in assay [2] (Dose 200 g/ha) stood at 2.3 g.
